Experiments:
[1] = molecular target: T1, TYRO3 (Homo sapiens, UniProt Q06418); experiment: TR-FRET kinase assay, TYRO3; format: biochemical
T1 construct: recombinant phosphorylated forms of the kinase domains for AXL, MER and TYRO3; purchased Life Technologies PR7480A
T1 sequence (Q06418 518-790 limits assumed): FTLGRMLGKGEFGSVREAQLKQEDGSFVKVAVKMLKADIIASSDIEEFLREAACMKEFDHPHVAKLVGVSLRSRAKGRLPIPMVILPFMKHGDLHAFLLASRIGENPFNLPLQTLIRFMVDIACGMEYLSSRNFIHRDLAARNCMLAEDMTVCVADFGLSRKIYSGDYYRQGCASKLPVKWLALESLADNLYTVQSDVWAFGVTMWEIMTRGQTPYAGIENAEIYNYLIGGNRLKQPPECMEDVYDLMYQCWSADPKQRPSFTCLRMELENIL
Method: The biochemical potency of Compound 1 to inhibit the enzymatic activity of TAM family members was investigated by TR-FRET assays using recombinant phosphorylated forms of the kinase domains for AXL, MER and TYRO3.
Phospho-AXL (pAXL), cMER and Tyro3 kinase activities were measured by time-resolved fluorescence energy transfer (TR-FRET) assays. Autophosphorylation of AXL was carried out before the kinase assay by incubating the recombinant AXL protein (ThermoFisher Scientific; #PV4275) in buffer containing 50 mM Tris, pH 7.5, 0.2 mg/mL AXL, 5 mM ATP, 20 mM MgCl2 and 2 mM dithiothreitol (DTT) at room temperature for 1 hour. The kinase assay buffer contained 50 mM HEPES, pH 7.5, 10 mM MgCl2, 1 mM EGTA, 0.01% NP-40 and 2 mM DTT. Enzyme solutions of 0.69 nM phospho-AXL, or 0.088 nM cMER (Carna Biosciences, Kobe, Japan; #08-108) or 0.137 nM TYRO3 (Life Technologies, PR7480A) were prepared in assay buffer. […] The plate was incubated for 30 minutes at room temperature, and homogenous time resolved fluorescence (HTRF) signal was measured on a PheraStar FS plate reader (BMG Labtech, Ortenberg, Germany). Percent inhibition was calculated for each concentration, and half maximal inhibitory concentration (IC50) value was generated from curve fitting with GraphPad Prism software (San Diego, Calif.).

[2] = test system: MBT-2 tumor; experiment: MBT-2 syngeneic tumor model; format: in vivo; details: MBT-2 in C3H mice, oral BID, FIG. 7A
Method: To test potential immunomodulatory activity of Compound 1 in vivo, antitumor efficacy studies were performed in syngeneic tumor models.
MBT-2 cells were obtained from the Japanese Collection of Research Bioresources Cell Bank and were maintained in DMEM supplemented with 10% FBS. MC38 cells were obtained from the NCI. 4T1 cells were obtained from ATCC and maintained in RPMI media supplemented with 10% FBS. For MBT-2 experiments, 5×10^5 MBT-2 cells were inoculated subcutaneously into the right hind flank of 6- to 8-week-old C3H mice or athymic nude mice (Charles River Laboratories, Wilmington, Mass.). For MC38 studies, 12-week old female C57BL/6 mice were inoculated with brei of MC38 tumors (in-vivo passage 6) into the right hind flank. For 4T1 studies, 7.5×10^5 4 T1 cells were inoculated subcutaneously into the right hind flank of 6- to 8-week-old female BALB/c mice or athymic nude mice (Charles River Laboratories). […] Mice were monitored for tumor growth and overt tolerability over the course of the experiment. […] Tumor volume was calculated using the formula (L×W^2)/2, where L and W refer to the length and width dimensions, respectively. Tumor growth inhibition (TGI) was calculated using the formula (1−(VT/VC))×100, where VT is the tumor volume of the treatment group on the last day of treatment, and VC is the tumor volume of the control group on the last day of treatment. […]

Q: Which results are given for `CC(C)C(=O)N1CCC(c2cc(-c3ccc(NC(=O)c4cn(C(C)C)c(=O)n(-c5ccccn5)c4=O)cc3)c3c(N)ncnn23)CC1` [Compound 1, N-(4-(4-Amino-7-(1-isobutyrylpiperidin-4-yl)pyrrolo[1,2-f][1,2,4]triazin-5-yl)phenyl)-1-isopropyl-2,4-dioxo-3-(pyridin-2-yl)-1,2,3,4-tetrahydropyrimidine-5-carboxamide]?
A: IC50 ([1]; average from multiple lots, n=25, read-out: IC50 against TYRO3): 101 ± 27 nM; selectivity over TYRO3 ([1]; biochemical): approximately 30 fold; antitumor efficacy (tumor volume) [2]: dose-dependent efficacy
